Consider nine compounds from ChEMBL document CHEMBL1201862, “PubChem BioAssay data set” (2004).

The source made the active and inactive calls.

Test [1] in a line: Luminescence Cell-Based Dose Response HTS to Identify Inhibitors of 5'UTR Stem-Loop Driven Prion Protein mRNA Translation in H4 Neuroglioblastoma Cells. [Related pubchem assays: 1827 (Project Summary), 1813 (Primary HTS)]. In kind it is functional.
The target in test [2] is T1, Nuclear receptor subfamily 0 group B member 1 (Homo sapiens, UniProt P51843).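 Note: HEK293T cells transfected with SF-1 and DAX-1 plus StAR promoter luciferase reporter.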
T1 sequence (P51843 whole entry): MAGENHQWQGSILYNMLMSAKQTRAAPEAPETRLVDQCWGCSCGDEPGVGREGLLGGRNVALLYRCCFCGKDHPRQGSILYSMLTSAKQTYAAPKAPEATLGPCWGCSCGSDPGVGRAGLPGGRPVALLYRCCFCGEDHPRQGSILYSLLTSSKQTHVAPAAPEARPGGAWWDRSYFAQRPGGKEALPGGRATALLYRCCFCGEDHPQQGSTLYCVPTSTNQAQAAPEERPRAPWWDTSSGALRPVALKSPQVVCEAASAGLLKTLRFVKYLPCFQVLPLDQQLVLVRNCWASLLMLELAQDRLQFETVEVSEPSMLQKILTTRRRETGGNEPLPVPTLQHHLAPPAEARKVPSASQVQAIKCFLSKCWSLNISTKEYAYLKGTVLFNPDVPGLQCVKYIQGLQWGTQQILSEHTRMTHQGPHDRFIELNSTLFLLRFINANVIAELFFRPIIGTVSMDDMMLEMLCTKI
In kind it is functional, cell-based.

Test [3] in a line: cells. In kind it is functional, cell-based.
A short description of test [4]: inhibitors of SNCA 5'UTR-driven reporter translation, confirmation, H4 neuroglioma cells, luminescence (AID 1988). The test is classed as functional, cell-based.
Test [5] deals with T2, Sentrin-specific protease 8 (Homo sapiens, UniProt Q96LD8).
T2 sequence (Q96LD8 whole entry): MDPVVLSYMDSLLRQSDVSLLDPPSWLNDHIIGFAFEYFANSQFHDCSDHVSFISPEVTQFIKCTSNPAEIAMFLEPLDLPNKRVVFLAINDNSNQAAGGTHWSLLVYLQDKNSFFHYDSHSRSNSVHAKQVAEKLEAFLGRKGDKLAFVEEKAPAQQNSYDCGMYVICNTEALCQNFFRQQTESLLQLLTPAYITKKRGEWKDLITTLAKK
The test is classed as functional.

In test [6] the target is T2, Sentrin-specific protease 8. In kind it is functional. This is another data set of the same source.
Test [7] addresses T3, Mannose-6-phosphate isomerase (Homo sapiens, UniProt P34949).
T3 sequence (P34949 whole entry): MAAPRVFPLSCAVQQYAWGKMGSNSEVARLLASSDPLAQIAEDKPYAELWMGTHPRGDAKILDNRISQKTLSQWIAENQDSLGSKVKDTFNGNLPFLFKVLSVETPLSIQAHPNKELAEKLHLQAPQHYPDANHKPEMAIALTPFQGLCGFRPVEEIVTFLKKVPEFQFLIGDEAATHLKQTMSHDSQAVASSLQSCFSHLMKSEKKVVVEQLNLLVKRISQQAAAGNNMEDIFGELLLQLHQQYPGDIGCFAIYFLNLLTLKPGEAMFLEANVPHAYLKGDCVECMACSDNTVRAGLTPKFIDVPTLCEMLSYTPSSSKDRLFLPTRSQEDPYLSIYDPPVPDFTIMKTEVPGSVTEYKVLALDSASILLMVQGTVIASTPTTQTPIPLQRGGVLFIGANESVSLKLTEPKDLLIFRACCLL
The test is described as follows: human PMI inhibitors, high substrate, primary screen, biochemical, fluorescence intensity, high mannose 6-phosphate (AID 1220).

The nature of test [8]: cells. The settings on record: A549.
For test [9], the target named is T4, Oxysterols receptor LXR-beta (Homo sapiens, UniProt P55055).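 Note: agonist activity at LXR measured by a cell-based luminescence readout across a dose range, run as a counterscreen for daf-12 agonists; HEK293 cells with Gal4-LXR fusion and GAL4-driven luciferase reporter; potency for activation of Gal4-LXR reporter so compounds are agonists.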
T4 sequence (P55055 whole entry): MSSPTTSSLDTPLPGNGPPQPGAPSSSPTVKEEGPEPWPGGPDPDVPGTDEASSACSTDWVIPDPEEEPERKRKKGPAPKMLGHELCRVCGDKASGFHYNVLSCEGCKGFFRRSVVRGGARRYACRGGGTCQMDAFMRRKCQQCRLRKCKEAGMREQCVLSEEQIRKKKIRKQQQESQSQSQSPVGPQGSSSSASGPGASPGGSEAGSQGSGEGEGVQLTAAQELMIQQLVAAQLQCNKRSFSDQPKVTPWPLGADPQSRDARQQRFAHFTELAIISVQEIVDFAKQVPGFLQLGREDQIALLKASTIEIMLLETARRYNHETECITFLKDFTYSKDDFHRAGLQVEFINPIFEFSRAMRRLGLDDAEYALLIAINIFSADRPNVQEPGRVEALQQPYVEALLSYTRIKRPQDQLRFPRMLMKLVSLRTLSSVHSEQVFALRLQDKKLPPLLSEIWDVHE
In kind it is functional, cell-based.

Test [10] addresses T5, Heat shock factor protein 1 (Mus musculus, UniProt P38532).
T5 sequence (P38532 whole entry): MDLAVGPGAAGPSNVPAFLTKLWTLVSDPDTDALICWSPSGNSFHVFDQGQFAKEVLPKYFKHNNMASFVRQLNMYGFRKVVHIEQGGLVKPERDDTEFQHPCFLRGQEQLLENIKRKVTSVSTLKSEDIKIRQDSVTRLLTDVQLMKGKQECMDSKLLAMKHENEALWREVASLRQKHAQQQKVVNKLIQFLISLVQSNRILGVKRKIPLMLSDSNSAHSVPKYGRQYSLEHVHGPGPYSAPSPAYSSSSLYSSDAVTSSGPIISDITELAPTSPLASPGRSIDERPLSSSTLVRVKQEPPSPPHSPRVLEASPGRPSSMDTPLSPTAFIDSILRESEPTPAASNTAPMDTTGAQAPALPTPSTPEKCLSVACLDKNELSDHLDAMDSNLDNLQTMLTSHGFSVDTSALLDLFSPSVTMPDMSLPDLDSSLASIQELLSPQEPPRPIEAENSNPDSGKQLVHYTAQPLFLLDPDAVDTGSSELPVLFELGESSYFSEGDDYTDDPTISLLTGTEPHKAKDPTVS
The test is described as follows: HSF1 potentiators in luciferase reporter cells, confirmation, cell-based, NIH3T3, luminescence, dose retest (AID 435004).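 Note: stress induced by proteasome inhibitor MG132 added 30 min after compound; luciferase reporter driven by HSF1 response element in NIH3T3 cells; actives raise luminescence as potentiators of the MG132 stress response.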 The test is classed as functional.

The target in test [11] is T6, High affinity choline transporter 1 (Homo sapiens, UniProt Q9GZV3).
T6 sequence (Q9GZV3 whole entry): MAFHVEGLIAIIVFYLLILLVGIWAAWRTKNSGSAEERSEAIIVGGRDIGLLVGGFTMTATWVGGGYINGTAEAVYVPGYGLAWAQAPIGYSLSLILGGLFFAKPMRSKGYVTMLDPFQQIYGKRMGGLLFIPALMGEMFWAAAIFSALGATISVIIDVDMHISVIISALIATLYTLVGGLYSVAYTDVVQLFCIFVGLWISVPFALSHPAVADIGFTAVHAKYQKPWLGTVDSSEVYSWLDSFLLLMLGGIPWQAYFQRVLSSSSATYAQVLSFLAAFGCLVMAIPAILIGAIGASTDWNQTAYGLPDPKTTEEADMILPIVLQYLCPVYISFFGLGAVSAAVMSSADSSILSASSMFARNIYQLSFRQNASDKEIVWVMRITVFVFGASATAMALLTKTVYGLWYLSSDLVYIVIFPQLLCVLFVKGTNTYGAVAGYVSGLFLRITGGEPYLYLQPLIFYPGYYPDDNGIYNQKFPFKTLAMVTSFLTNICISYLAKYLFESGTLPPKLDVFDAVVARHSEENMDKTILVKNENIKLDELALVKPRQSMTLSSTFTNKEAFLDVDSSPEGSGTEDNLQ
The test is described as follows: CHT inhibitors, dose response, cell-based, 5-point CRC, membrane potential dye (AID 504840). In kind it is functional.

Test [12] in a line: growth suppression of beta-catenin-knockout colon cells, dose response, cell-based, HCT116, human colon tumor (AID 1045).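 Note: HCT116 colon tumor cells with beta catenin knocked out; cells exposed to compound for 60 hours.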 In kind it is functional.
A short description of test [13]: growth suppression of PTEN-null colon cells, dose response, cell-based, HCT116 PTEN knockout (AID 1047).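 Note: HCT116 colon tumor cells with PTEN knocked out; cells exposed to compound for 60 hours before readout; potency for loss of cell viability measured by luminescence.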 In kind it is functional.
The target in test [14] is Arf-GAP with SH3 domain, ANK repeat and PH domain-containing protein 1 (Homo sapiens, UniProt Q9ULH1). The test is classed as functional.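 Note: biochemical fluorescence polarization dose–response screen measuring inhibition of ASAP1; ASAP1 GAP domain stimulating GTP hydrolysis by truncated human ARF1.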
For test [15], the target named is ADP-ribosylation factor GTPase-activating protein 1 (Rattus norvegicus, UniProt Q62848). The test is described as follows: Fluorescence polarization-based biochemical high throughput dose response screening assay to identify inhibitors of ADP-ribosylation factor GTPase activating protein 1 (ARFGAP1). In kind it is functional.
Test [16] has as its system H4. Put plainly: Luminescence Cell-Based Dose Response HTS to Identify Activators of 5'UTR Stem-Loop Driven Prion Protein mRNA Translation in H4 Neuroglioblastoma Cells. [Related pubchem assays: 1829 (Project Summary), 1814 (Primary HTS)]. In kind it is functional. The settings on record: Homo sapiens.
Test [17] is described as follows: Luminescence Cell-Based Dose Response HTS to Identify Activators of Luciferase Translation or Activity in H4 […] Cells. [Related pubchem assays: 1829 (Project Summary), 1814 (Primary HTS)]. The test is classed as functional.
Test [18] is described as follows: HEK293T cytotoxicity, dose response, cytotoxicity control for miR-122 modulator project, cell-based, inhibitor set, cherry-pick, set 2 (AID 720697). In kind it is functional.
Test [19] deals with Streptococcus sp. 'group A'. Put plainly: growth inhibition of control SK(-) GAS strain, dose response, counter-screen for streptokinase expression inhibitor project, luminescence, kanamycin, BacTiterGlo, confirmation (AID 1900). In kind it is functional, organism-based.
A short description of test [20]: cytotoxicity toward NIH3T3 fibroblasts, dose response, counter-screen, cell-based, ATP luminescence, mouse fibroblasts (AID 2010).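 Note: cells exposed to compound for about 90 hours before reading.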 The test is classed as functional.
The nature of test [21]: inhibitors of intracellular T. cruzi replication, confirmation, NIH3T3 host cells, beta-gal luminescence (AID 2044).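 Note: intracellular parasites grown in NIH/3T3 mouse fibroblasts as host cells; luminescent beta-galactosidase reporter signal from transgenic T. cruzi replicating inside host cells; inhibitors lower the luminescence signal.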 The test is classed as functional, cell-based.
Test [22] deals with Streptococcus. The test is described as follows: Group A Streptococcus viability loss, dose response, counter-screen for streptokinase expression inhibitor project, luminescence, BacTiterGlo (AID 1915).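 Note: potency for reduction of bacterial viability or growth.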 In kind it is functional, organism-based.
A short description of test [23]: Luminescence Cell-Based Dose Retest to Confirm Inhibitors of Cancer Stem Cells. [Related pubchem assays (depositor defined):AID2717, AID2721]. In kind it is functional. The settings on record: Homo sapiens.
Test [24] has as its target T7, Streptokinase A (Streptococcus pyogenes serotype M1, UniProt P10520).
T7 sequence (P10520 whole entry): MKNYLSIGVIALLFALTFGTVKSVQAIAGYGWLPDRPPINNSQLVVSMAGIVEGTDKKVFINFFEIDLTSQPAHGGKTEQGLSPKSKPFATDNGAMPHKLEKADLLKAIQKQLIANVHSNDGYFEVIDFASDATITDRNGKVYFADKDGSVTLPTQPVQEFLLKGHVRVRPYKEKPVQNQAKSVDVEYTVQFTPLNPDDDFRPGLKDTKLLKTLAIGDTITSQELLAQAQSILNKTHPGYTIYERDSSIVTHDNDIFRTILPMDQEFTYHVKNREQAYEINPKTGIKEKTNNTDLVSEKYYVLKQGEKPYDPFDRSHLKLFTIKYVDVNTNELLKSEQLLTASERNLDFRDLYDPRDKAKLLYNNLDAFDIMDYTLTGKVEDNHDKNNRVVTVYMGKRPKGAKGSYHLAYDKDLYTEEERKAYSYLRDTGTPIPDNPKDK
Put plainly: S. pyogenes streptokinase expression inhibitors, potency, dose response, plasminogen activation absorbance, OD405 (AID 1914).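 Note: secreted streptokinase activity via plasminogen activation per viability signal from cell pellet.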 In kind it is functional, Streptococcus pyogenes M1 GAS.

For test [25], the target named is SWI/SNF-related matrix-associated actin-dependent regulator of chromatin subfamily A member 2 (Homo sapiens, UniProt P51531). Put plainly: Luminescence-based cell-based high throughput dose response assay to identify activators of the function of SWI/SNF related, matrix associated, actin dependent regulator of chromatin, subfamily a, member 2 (SMARCA2, BRM). In kind it is functional.

Test [26] is described as follows: Counterscreen for activators of the function of SWI/SNF related, matrix associated, actin dependent regulator of chromatin, subfamily a, member 2 (SMARCA2, BRM): Luminescence-based cell-based high throughput dose response assay to identify non-selective compounds using the VP16 reporter assay. In kind it is functional.

Sequence of Arf-GAP with SH3 domain, ANK repeat and PH domain-containing protein 1 (Q9ULH1 whole entry, the tested form may be a part): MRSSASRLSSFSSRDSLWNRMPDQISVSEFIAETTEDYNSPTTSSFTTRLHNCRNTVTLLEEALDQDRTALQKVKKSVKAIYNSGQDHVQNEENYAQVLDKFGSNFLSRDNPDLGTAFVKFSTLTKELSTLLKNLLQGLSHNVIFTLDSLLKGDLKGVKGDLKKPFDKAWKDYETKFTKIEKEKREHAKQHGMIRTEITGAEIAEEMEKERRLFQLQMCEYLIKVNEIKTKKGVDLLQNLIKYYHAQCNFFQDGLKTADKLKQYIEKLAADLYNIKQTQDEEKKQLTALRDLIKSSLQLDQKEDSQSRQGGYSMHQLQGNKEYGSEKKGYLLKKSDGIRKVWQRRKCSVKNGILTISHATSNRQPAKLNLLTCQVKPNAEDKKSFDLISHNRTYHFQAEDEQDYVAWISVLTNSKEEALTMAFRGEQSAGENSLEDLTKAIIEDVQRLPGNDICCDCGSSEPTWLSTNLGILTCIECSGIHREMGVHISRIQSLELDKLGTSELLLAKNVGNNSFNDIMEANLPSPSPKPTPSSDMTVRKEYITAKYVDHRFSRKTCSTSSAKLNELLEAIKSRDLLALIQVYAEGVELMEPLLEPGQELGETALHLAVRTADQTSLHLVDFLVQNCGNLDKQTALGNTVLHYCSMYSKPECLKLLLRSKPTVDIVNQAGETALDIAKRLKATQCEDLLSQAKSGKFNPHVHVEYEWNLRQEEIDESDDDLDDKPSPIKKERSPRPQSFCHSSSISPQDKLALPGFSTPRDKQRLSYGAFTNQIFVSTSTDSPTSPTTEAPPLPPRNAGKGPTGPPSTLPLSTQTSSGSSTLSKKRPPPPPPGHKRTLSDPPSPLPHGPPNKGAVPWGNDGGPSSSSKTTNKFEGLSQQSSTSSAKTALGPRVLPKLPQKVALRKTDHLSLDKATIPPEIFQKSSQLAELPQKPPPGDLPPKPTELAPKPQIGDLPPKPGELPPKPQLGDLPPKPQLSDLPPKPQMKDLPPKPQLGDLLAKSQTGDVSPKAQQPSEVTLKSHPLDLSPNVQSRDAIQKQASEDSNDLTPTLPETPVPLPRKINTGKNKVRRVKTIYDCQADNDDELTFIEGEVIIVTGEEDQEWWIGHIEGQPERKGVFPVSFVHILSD
Sequence of SWI/SNF-related matrix-associated actin-dependent regulator of chromatin subfamily A member 2 (P51531 whole entry): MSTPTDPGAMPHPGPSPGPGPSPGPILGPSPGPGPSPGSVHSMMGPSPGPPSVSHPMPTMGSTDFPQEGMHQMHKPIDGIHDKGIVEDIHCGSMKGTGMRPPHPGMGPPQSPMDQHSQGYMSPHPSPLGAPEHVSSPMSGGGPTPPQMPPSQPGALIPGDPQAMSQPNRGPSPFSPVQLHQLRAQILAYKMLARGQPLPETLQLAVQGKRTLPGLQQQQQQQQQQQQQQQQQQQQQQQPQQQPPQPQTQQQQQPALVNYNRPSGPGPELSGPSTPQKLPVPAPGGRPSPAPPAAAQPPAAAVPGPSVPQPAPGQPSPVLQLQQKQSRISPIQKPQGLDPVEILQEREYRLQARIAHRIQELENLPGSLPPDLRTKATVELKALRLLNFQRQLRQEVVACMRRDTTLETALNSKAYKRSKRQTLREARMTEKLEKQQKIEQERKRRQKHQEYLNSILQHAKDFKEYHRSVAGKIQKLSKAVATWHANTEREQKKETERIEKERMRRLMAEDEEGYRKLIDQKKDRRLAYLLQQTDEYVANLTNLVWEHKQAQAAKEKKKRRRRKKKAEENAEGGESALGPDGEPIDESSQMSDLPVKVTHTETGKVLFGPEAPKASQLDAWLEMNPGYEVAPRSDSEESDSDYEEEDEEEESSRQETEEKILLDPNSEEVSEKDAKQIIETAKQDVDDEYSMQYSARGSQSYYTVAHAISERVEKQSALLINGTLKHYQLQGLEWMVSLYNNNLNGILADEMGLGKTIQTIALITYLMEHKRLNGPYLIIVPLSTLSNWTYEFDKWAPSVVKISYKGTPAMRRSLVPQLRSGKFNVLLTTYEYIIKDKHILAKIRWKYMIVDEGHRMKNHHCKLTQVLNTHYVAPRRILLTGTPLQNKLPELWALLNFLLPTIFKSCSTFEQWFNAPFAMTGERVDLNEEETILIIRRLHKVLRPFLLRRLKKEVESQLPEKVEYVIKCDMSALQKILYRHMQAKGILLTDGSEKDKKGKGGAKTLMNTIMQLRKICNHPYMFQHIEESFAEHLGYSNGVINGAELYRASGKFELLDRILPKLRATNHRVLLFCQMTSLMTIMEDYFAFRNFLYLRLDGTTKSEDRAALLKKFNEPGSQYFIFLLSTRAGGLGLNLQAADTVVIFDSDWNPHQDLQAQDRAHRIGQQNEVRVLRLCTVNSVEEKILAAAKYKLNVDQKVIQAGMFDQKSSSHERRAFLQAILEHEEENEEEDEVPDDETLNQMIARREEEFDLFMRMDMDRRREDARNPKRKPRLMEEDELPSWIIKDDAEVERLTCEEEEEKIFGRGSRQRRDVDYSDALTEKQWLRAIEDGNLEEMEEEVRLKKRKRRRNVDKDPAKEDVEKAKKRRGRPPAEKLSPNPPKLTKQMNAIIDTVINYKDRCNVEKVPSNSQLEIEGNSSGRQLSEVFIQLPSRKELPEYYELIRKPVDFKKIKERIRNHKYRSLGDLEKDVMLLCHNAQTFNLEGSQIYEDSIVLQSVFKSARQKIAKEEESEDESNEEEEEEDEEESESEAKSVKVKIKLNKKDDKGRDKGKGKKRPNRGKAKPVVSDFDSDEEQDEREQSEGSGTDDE
Sequence of ADP-ribosylation factor GTPase-activating protein 1 (Q62848 whole entry): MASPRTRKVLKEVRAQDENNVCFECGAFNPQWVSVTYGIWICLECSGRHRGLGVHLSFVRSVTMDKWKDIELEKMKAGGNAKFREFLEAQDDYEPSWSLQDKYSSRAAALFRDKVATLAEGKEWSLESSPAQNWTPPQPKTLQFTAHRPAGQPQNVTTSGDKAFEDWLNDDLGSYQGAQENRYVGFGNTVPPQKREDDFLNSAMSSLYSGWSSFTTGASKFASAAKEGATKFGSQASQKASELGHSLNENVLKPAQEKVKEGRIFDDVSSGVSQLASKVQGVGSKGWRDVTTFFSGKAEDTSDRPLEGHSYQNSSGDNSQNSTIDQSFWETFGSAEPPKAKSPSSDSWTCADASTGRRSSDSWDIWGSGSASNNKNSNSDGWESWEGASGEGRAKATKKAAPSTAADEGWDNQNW

With `COc1ccc(C(=O)NCCC2=CCCCC2)cc1`, the EC50 was 8.58 µM (active) in test [1] and 8.69 µM (inconclusive) in test [4]. In addition, the IC50 in test [2] is > 0.278 µM (active); in test [3], > 67.5 µM (inactive).
`NC(=O)c1ccc(/N=C2\C(=O)Nc3ccc([N+](=O)[O-])cc32)cc1`: the IC50 was 4.25 µM (active) in test [5], 3.98 µM (active) in test [6] and 27.5 µM (active) in [7].
As to `O=C(Nc1ccc2c(c1)OCCO2)c1ccc(NC(=O)C2CCCO2)cc1` (centres undefined), the AC50 in test [8] was > 52 µM (inactive).
On to `O=C(Nc1ccn(Cc2ccccc2)n1)c1n[nH]c([N+](=O)[O-])c1Cl`, for which the EC50 in test [9] is > 67.5 µM (inactive); in test [10] it was > 260 µM (inconclusive). Further, the IC50 in test [11] is 4.37 µM (active).
With `O=C(/C=C\c1cn(-c2ccccc2)nc1-c1ccccc1)Nc1nccs1`, the EC50 in test [12] is 7.96 µM (active); in test [13], 7.09 µM (active). Also, the IC50 in test [14] is 26.2 µM (inactive); in test [15], 32.1 µM (inactive).
For the compound `Cn1c(NC(=O)CCc2ccccc2)cc(=O)n(C)c1=O`, the EC50 was 9.93 µM (active) in test [16], > 67.5 µM (inactive) in test [9] and 4.41 µM (inconclusive) in test [17].
In the case of `C/C(=N\Nc1cc(N2CCCCC2)nc(C)n1)c1ccc(Br)cc1`, the AC50 in [18] is 5.41 µM (active); in test [23], 5.52 µM (active). In addition, the EC50 in test [19] is 6.7 µM (active); in test [20], > 60 µM (not active); in [21], 0.7 µM (active); in test [22], > 50 µM (not active); in test [24], 46.7 µM (inconclusive).
For `O=C(N/N=C/c1ccc2c(c1)OCO2)c1ccccn1`, the IC50 in test [2] and in test [3] was > 67.5 µM (inactive) throughout.
As for `O=C1C(Sc2ccccc2)=C[C@@]2(O)CC[C@@H](O)[C@]1(Sc1ccccc1)[C@H]2O`, the EC50 in [25] and in [26] was > 91.3 µM (inactive) throughout.
